Measured values reported in ChEMBL document CHEMBL6177994 (J Med Chem, 2025).
Activity calls are given as the source filed them. The calls are words filed in the database; no cut-off is given here.

How the values were obtained:
[1] = Drug concentration in male Balb/c nude mouse plasma xenografted with human PK-59 cells at 10 mg/kg, iv administered as single dose measured after 6 hrs by LC-MS/MS analysis; assay type: ADME, organism-based
[2] = Plasma protein binding in rat at 2 uM by LC-MS/MS analysis; assay type: ADME, cell-free; settings: read-out: PPB
[3] = Antitumor activity against human PK-59 cells xenografted in female Balb/c nude mouse model assessed as tumor growth inhibition at 1 mg/kg, iv QW measured after 28 days relative to control; assay type: functional; settings: PK-59, 672 h, time 28 day, read-out: TGI
Panc 04.03 = experiment: Antiproliferative activity against human Panc 04.03 cells harbouring KRAS G12D mutant assessed as inhibition of cell growth measured after 72 hrs by Cell titer glo method; assay type: functional, cell-based
[4] = Clearance in male Sprague-Dawley rat at 1 mg/kg, iv measured up to 24 hrs by LC-MS/MS analysis; assay type: ADME, organism-based; settings: in vivo
[5] = system: Protein cereblon/GTPase KRas (Homo sapiens), P01116+Q96SW2 [G12D]; experiment: In vivo PROTAC activity at CRBN/KRAS G12D mutant in male Balb/c nude mouse xenografted with human PK-59 cells assessed as degradation of KRAS G12D mutant at 10 mg/kg, iv measured up to 168 hrs relative to control; assay type: functional, organism-based
Chain of Protein cereblon/GTPase KRas (Homo sapiens), P01116+Q96SW2 [G12D] (P01116 whole entry G12D): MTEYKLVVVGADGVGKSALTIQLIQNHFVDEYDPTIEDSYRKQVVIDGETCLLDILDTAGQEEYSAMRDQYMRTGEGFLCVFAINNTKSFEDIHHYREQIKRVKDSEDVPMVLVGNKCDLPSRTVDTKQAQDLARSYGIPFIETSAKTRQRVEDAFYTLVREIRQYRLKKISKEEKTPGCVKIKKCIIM
Chain of Protein cereblon/GTPase KRas (Homo sapiens), P01116+Q96SW2 [G12D] (Q96SW2 whole entry partner): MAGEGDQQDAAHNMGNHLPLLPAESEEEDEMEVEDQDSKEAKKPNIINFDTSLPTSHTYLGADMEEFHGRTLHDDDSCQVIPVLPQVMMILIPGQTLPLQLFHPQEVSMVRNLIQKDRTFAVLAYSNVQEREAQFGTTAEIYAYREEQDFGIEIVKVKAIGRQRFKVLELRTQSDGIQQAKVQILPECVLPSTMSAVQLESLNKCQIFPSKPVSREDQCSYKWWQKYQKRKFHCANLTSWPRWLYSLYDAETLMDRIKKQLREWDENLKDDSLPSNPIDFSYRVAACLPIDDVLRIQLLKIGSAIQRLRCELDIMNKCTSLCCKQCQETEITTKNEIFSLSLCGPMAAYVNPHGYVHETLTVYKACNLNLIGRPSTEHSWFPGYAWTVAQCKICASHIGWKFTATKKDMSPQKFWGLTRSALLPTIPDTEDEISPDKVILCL

[6] = Volume of distribution at steady state in male Sprague-Dawley rat at 1 mg/kg, iv measured up to 24 hrs by LC-MS/MS analysis; assay type: ADME, organism-based; settings: in vivo, read-out: Vdss
[7] = Drug concentration in male Balb/c nude mouse plasma xenografted with human GP2d cells at 10 mg/kg, iv administered as single dose measured after 168 hrs by LC-MS/MS analysis; assay type: ADME, organism-based
[8] = system: Protein cereblon/GTPase KRas (Homo sapiens), P01116+Q96SW2 [G12D]; experiment: PROTAC activity at CRBN/KRAS G12D mutant in human ASPC1 cells assessed as induction of KRAS G12D mutant degradation at 1 nM measured after 12 hrs by immunoblot analysis relative to control; assay type: cell-based
[9] = Half life in male ICR mouse at 1 mg/kg, iv measured up to 24 hrs by LC-MS/MS analysis; assay type: ADME, organism-based; settings: in vivo
[10] = Drug concentration in male ICR mouse plasma at 10 mg/kg, iv measured after 0.25 hrs by LC-MS/MS analysis; assay type: ADME, organism-based
[11] = Volume of distribution at steady state in male ICR mouse at 1 mg/kg, iv measured up to 24 hrs by LC-MS/MS analysis; assay type: ADME, organism-based; settings: in vivo, read-out: Vdss
[12] = Antitumor activity against human PK-59 cells xenografted in female Balb/c nude mouse model assessed as tumor growth inhibition at 0.3 mg/kg, iv QW measured after 28 days relative to control; assay type: functional; settings: PK-59, 672 h, time 28 day, read-out: TGI
Cytochrome P450 1A2 = Cytochrome P450 1A2 (Homo sapiens, UniProt P05177); experiment: Inhibition of CYP1A2 in human liver microsomes using phenacetin as substrate at 10 uM incubated for 15 mins in presence of NADPH by LC/MS analysis; assay type: ADME, Microsome; settings: 0.25 h
Chain of Cytochrome P450 1A2 (P05177 whole entry): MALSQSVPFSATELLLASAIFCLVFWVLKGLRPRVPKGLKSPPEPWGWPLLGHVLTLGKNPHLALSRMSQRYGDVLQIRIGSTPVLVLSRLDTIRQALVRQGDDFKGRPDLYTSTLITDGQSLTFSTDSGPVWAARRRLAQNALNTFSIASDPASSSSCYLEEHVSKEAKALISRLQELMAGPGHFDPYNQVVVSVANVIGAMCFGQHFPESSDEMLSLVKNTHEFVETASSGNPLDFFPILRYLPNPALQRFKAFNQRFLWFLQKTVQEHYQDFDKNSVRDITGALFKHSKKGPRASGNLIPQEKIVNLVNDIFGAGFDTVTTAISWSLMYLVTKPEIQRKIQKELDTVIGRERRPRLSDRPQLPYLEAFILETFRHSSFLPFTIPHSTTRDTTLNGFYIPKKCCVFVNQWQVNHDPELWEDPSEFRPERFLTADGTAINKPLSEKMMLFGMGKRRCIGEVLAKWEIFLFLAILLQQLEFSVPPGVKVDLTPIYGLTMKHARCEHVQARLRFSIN

SNU-407 = experiment: Antiproliferative activity against human SNU-407 cells harbouring KRAS G12D mutant assessed as inhibition of cell growth measured after 72 hrs by Cell titer glo method; assay type: functional, cell-based
[13] = Toxicity in female Balb/c nude mouse xenografted with human GP2d cells assessed as change in body weight at 1 to 10 mg/kg, iv QW measured after 28 days; assay type: organism-based; settings: in vivo, 672 h, dose 1-10 mg/kg, time 28 day
A-427 = experiment: Antitumor activity against human A-427 cells harbouring KRAS G12D mutant xenografted in female Balb/c nude mouse model assessed as tumor regression at 1 to 10 mg/kg, iv QW administered weekly and measured after 28 days relative to control; assay type: functional; settings: dose 1-10 mg/kg, time 28 day
[14] = Toxicity in female Balb/c nude mouse xenografted with human GP2d cells assessed as drug tolerance at 1 to 10 mg/kg, iv Q2W measured after 28 days; assay type: organism-based; settings: in vivo, 672 h, dose 1-10 mg/kg, time 28 day
[15] = Stability in rat plasma assessed as half life at 1 uM measured up to 120 mins by LC-MS/MS analysis; assay type: ADME, cell-free
[16] = Inhibition of ERK phosphorylation in human AGS cells harbouring KRAS G12D mutant measured after 24 hrs; assay type: cell-based
[17] = Metabolic stability in rat liver microsomes assessed as half life at 1 uM preincubated for 3 mins with NADPH and measured up to 60 mins by LC-MS/MS analysis; assay type: ADME, Microsome; settings: time < 63 min
Cytochrome P450 2D6 = Cytochrome P450 2D6 (Homo sapiens, UniProt P10635); experiment: Inhibition of CYP2D6 in human liver microsomes using dextromethorphan as substrate at 10 uM incubated for 15 mins in presence of NADPH by LC/MS analysis; assay type: ADME, Microsome; settings: 0.25 h
Chain of Cytochrome P450 2D6 (P10635 whole entry): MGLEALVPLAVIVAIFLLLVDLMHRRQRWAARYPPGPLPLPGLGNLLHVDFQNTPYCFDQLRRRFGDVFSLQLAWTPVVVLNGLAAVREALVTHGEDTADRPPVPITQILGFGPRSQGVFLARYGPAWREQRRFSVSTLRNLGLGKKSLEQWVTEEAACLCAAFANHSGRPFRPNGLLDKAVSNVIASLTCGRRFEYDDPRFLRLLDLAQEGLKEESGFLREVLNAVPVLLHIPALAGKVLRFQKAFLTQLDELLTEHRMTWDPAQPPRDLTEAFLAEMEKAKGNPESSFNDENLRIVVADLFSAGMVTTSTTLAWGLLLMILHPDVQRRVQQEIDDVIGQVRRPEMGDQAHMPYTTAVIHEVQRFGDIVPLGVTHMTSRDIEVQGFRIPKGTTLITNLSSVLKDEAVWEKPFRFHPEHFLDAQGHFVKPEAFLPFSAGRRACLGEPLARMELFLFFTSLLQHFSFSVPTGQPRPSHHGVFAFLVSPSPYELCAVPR

[18] = system: Protein cereblon/GTPase KRas (Homo sapiens), P01116+Q96SW2 [G12D]; experiment: In vivo PROTAC activity at CRBN/KRAS G12D mutant in male Balb/c nude mouse xenografted with human PK-59 cells assessed as increase in cleaved caspase 7 level at 10 mg/kg, iv measured after 24 hrs relative to control; assay type: functional, organism-based
[19] = Drug concentration in male Balb/c nude mouse tumor xenografted with human PK-59 cells at 10 mg/kg, iv administered as single dose measured after 6 hrs by LC-MS/MS analysis; assay type: ADME, organism-based, Neoplasm; settings: read-out: Ct
Cytochrome P450 2C9 = Cytochrome P450 2C9 (Homo sapiens, UniProt P11712); experiment: Inhibition of CYP2C9 in human liver microsomes using diclofenac as substrate at 10 uM incubated for 15 mins in presence of NADPH by LC/MS analysis; assay type: ADME, Microsome; settings: 0.25 h
Chain of Cytochrome P450 2C9 (P11712 whole entry): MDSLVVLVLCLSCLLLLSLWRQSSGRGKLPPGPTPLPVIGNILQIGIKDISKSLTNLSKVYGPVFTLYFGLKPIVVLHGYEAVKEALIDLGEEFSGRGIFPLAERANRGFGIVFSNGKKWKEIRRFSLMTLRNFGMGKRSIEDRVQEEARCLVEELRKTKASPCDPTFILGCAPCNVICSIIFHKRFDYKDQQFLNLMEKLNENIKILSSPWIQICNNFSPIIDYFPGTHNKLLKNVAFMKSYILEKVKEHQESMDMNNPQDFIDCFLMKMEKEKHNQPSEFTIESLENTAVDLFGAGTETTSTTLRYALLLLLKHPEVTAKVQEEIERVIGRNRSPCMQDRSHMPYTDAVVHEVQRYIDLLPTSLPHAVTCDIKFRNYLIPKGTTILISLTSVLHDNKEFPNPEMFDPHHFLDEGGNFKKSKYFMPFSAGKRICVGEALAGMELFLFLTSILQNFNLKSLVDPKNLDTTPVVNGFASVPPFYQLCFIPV

[20] = system: Protein cereblon/GTPase KRas (Homo sapiens), P01116+Q96SW2 [G12D]; experiment: PROTAC activity at CRBN/KRAS G12D mutant in human ASPC1 cells assessed as induction of KRAS G12D mutant degradation at 5 nM preincubated with MRTX1133 followed by compound addition and measured after 24 hrs by Western blot analysis; assay type: cell-based
[21] = Antiproliferative activity against human PK-59 cells harbouring KRAS G12D mutant assessed as inhibition of cell growth measured after 72 hrs by Cell titer glo method; assay type: functional, cell-based; settings: PK-59, 72 h
HCC1588 = experiment: Antiproliferative activity against human HCC1588 cells harbouring KRAS G12D mutant assessed as inhibition of cell growth measured after 72 hrs by Cell titer glo method; assay type: functional, cell-based
[22] = Metabolic stability in monkey liver microsomes assessed as intrinsic clearance at 1 uM preincubated for 3 mins with NADPH and measured up to 60 mins by LC-MS/MS analysis; assay type: ADME, Macaca mulatta, Microsome; settings: rhesus monkey, time < 63 min, read-out: CLH
MKN-1 = experiment: Antiproliferative activity against human MKN-1 cells harbouring wild type KRAS assessed as inhibition of cell growth measured after 72 hrs by Cell titer glo method; assay type: functional, cell-based
[23] = Stability in human plasma assessed as half life at 1 uM measured up to 120 mins by LC-MS/MS analysis; assay type: ADME, cell-free
[24] = Stability in human hepatocyte assessed as intrinsic clearance at 100 uM measured up to 120 mins by LC-MS/MS analysis; assay type: ADME, cell-based; settings: hepatocytes, read-out: CLH

## C#Cc1c(F)ccc2cc(O)cc(-c3ncc4c(N5CC6CCC(C5)N6)nc(OCC5(CN6CCC7(CC6)CC(N6CCC(c8cc9c(cc8F)c(N8CCC(=O)NC8=O)nn9C)CC6)C7)CC5)nc4c3F)c12
[1]
  concentration at 6 h: 270 ng/mL
[2]
  fraction unbound at 2 µM: < 0.05
[3]
  inhibition in vivo at 1 mg/kg: 98%
Panc 04.03
  Activity: Active; Compound Showed Stronger Antiproliferative Activity Compared To Mrtx1133
[4]
  clearance: 33 mL/min/kg
[5]
  Activity: 87.7%
[6]
  Vd: 10.3 L/kg
[7]
  concentration at 168 h: 4.1 ng/mL
[8]
  Activity: 70%
[9]
  half-life: 529 min
[10]
  concentration at 0.25 h: 903 ng/mL
[11]
  Vd: 15.8 L/kg
[12]
  inhibition in vivo at 0.3 mg/kg: 93%
Cytochrome P450 1A2
  inhibition (INH): Not_active
SNU-407
  Activity: Active; Compound Showed Stronger Antiproliferative Activity Compared To Mrtx1133
[13]
  Activity: Non-toxic
A-427
  Activity: >30%
[14]
  Activity: Non-toxic
[15]
  half-life at 1 µM: 770 min
[16]
  IC50: 10.6 nM
[17]
  half-life at 1 µM: 151 min
Cytochrome P450 2D6
  inhibition (INH): Not_active
[18]
  Activity: > 100%
[19]
  concentration at 6 h: 1040 ng/g
Cytochrome P450 2C9
  inhibition (INH): Not_active
[20]
  Activity: Active
[21]
  IC50: 2.8 nM
HCC1588
  Activity: Active; Compound Showed Stronger Antiproliferative Activity Compared To Mrtx1133
[22]
  CLint scaled at 1 µM: 4.3 mL/min/kg
MKN-1
  Activity: Weak_effect; Compound Showed Weaker Potency In Antiproliferative Activity Compared To Mrtx1133
[23]
  half-life at 1 µM: 6.88 days
[24]
  CLint scaled at 100 µM: 5.8 mL/min/kg
